Our source for the Reduction and ED50 values is ChEMBL document CHEMBL1130741, “Carboxy-substituted 2-azetidinones as cholesterol absorption inhibitors” (1998).

Format in all cases: functional, Cricetulus griseus
The subject of assay [1] is Cricetinae gen. sp. Put plainly: Compound was tested for percent reduction of liver cholesterol esters absorption in cholesterol fed hamster model at an oral dose of 3 mg/kg/day.
Assay [2] concerns Cricetinae gen. sp. Kind of assay: Compound was tested for percent reduction of serum cholesterol absorption in cholesterol fed hamster model at an oral dose of 3 mg/kg/day.
For assay [3], the system named is Cricetinae gen. sp. Kind of assay: Compound was tested for percent reduction of liver cholesterol esters absorption in cholesterol fed hamster model at an oral dose of 10 mg/kg/day.
Assay [4] has as its system Cricetinae gen. sp. Kind of assay: Compound was tested for percent reduction of serum cholesterol absorption in cholesterol fed hamster model at an oral dose of 10 mg/kg/day.
For assay [5], the system named is Cricetinae gen. sp. Put plainly: Dose required to inhibit cholesterol absorption in cholesterol fed hamster model.
The subject of assay [6] is Cricetinae gen. sp. Kind of assay: Compound was tested for percent reduction of liver cholesterol esters absorption in cholesterol fed hamster model at an oral dose of 50 mg/kg/day.

Consider `COC(=O)Cc1ccc([C@@H]2[C@@H](CCCc3ccccc3)C(=O)N2c2ccc(F)cc2)cc1`, for which the Reduction is reported as -61% in assay [1] and -16% in assay [2].

As for `CCN(CC)C(=O)CCc1ccc([C@@H]2[C@@H](CCCc3ccccc3)C(=O)N2c2ccc(F)cc2)cc1`, the results for the Reduction in assay [3] and in assay [4] were -19% and 0%, respectively.

Consider `COC(=O)Cc1ccc([C@@H]2[C@@H](CCCc3ccccc3)C(=O)N2c2ccc(OC)cc2)cc1`, for which the ED50 in assay [5] stood at 0.95 mg/kg/day. Further, the Reduction is on record as -89% in assay [1] and -26% in assay [2].

For `COC(=O)C(C)(C)Oc1ccc([C@@H]2[C@@H](CCCc3ccccc3)C(=O)N2c2ccc(OC)cc2)cc1`, the Reduction in assay [6] is given as -80%.

In the case of `O=C(O)CCc1ccc([C@@H]2[C@@H](CCCc3ccccc3)C(=O)N2c2ccc(F)cc2)cc1`, the Reduction in assay [3] is -63%; in assay [4] it was -32%.

For the compound `COC(=O)/C=C/c1ccc([C@@H]2[C@@H](CCCc3ccccc3)C(=O)N2c2ccc(OC)cc2)cc1`, in assay [6], the Reduction was -90%.

For `COC(=O)CCc1ccc([C@@H]2[C@@H](CCCc3ccccc3)C(=O)N2c2ccc(F)cc2)cc1`, the Reduction in assay [3] was -72%; in assay [4] it was -26%.

Compound `COC(=O)CCc1ccc([C@@H]2[C@@H](CCCc3ccccc3)C(=O)N2c2ccc(OC)cc2)cc1` returned an ED50 in assay [5] of 0.85 mg/kg/day. Further, the Reduction is on record as -76% in assay [1] and -20% in assay [2].

Regarding `CCN(CC)C(=O)Cc1ccc([C@@H]2[C@@H](CCCc3ccccc3)C(=O)N2c2ccc(F)cc2)cc1`, the Reduction in assay [3] is given as -19%; in assay [4], 0%.

In assay [5], `O=C(O)Cc1ccc([C@@H]2[C@@H](CCCc3ccccc3)C(=O)N2c2ccc(F)cc2)cc1` returned an ED50 of 1.1 mg/kg/day. For the same compound, the Reduction is -97% in assay [3] and -44% in assay [4].

As for `COC(=O)c1ccc([C@@H]2[C@@H](CCCc3ccccc3)C(=O)N2c2ccc(F)cc2)cc1`, the values for the Reduction in assay [1] and in assay [2] were -16% and 0%, respectively.

For the compound `O=C(O)c1ccc([C@@H]2[C@@H](CCCc3ccccc3)C(=O)N2c2ccc(F)cc2)cc1`, the results for the Reduction in assay [1] and in assay [2] were -37% and 0%, respectively.

On to `COc1ccc(N2C(=O)[C@H](CCCc3ccccc3)[C@H]2c2ccc(OC(C)(C)C(=O)O)cc2)cc1` (racemic), for which the Reduction in assay [6] is on record as -75%.

With `COC(=O)CCc1ccc([C@@H]2[C@@H](CCCc3ccccc3)C(=O)N2c2ccc(OC)cc2)cc1` (racemic), the Reduction in assay [6] is -93%.

Regarding `COc1ccc([C@@H]2[C@@H](CCCc3ccccc3)C(=O)N2c2ccc(OC)cc2)cc1` (racemic) [SCH-48461], the Reduction in assay [6] was -78%.

Compound `COc1ccc([C@@H]2[C@@H](CCCc3ccccc3)C(=O)N2c2ccc(OC)cc2)cc1` [SCH-48461] had an ED50 in assay [5] of 2 mg/kg/day. Besides, the Reduction in assay [3] was -93%; in assay [4], -43%.
